Read-outs that look alike come from different tables or passages of the source.
Key:
hCB2 = hCB2 (Homo sapiens, UniProt P34972); test: In vitro binding assay using hCB2-CHO membranes, [3H]-CP-55,940 displacement (Protocol IV); design: expressed in transfected cells; host or cells: CHO (hCB2-CHO, generated in-house); conditions: 1 h, read-out: % Displacement Protocol IV
Description: IV. Protocol for In Vitro Assay Using hCB2-CHO Membranes:
In this assay, [^3H]-CP-55,940 was used as the radioligand to bind human CB2 receptor expressed on the membranes from CHO cells (hCB2-CHO cell line was generated in-house) which can be displaced by unlabeled ligands having affinity to the CB2 receptor.
The assay was performed according to the modified method of Ross et al., 1999 (Br. J. Pharmacol. 128, 735-743). The reaction was set up in a total volume of 200 μl in PEI (0.2%) precoated Millipore GFB filter plates. 1 mM stocks of test compounds were prepared in DMSO and tested at a final concentration of 300 nM. The non-specific binding was determined by 0.5 μM CP-55, 940. The total reaction mixture contained Tris-BSA buffer (50 mM Tris, 5 mM MgCl2, 1 mM EDTA, pH 7.4 with 0.1% BSA), unlabelled CP-55, 940 (0.5 μM) or test samples, [^3H]-CP-55, 940 (0.75 nM) and 25-50 μg of human CB2 receptor preparation. The assay mixture (with or without the test compound) was incubated at 30° C. for 1 hour. The reaction was stopped by rapid filtration under vacuum and the radioactivity on the filters was measured by liquid scintillation counting.
The percent (%) displacement by a test ligand was calculated by comparing the specific bound values.

[1] = hCB2-CHO membranes, [3H]-CP-55,940 displacement

Sequence of hCB2 (P34972 whole entry): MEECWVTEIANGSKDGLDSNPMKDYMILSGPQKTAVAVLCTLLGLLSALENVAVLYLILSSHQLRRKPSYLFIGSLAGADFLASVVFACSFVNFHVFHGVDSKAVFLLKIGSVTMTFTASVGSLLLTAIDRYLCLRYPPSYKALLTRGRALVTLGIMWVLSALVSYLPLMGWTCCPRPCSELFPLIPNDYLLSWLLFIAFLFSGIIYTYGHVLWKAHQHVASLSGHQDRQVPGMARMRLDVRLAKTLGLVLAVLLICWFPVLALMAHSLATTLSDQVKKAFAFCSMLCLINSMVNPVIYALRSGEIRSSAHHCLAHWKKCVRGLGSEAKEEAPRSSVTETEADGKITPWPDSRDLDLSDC

Row | SMILES | inhibition at 0.3 µM (hCB2; [1]) [%] | melting point [°C] | inhibition at 0.3 µM (hCB2) [%]
1 | O=C(NCc1cccnc1)c1nn(-c2ccc(Cl)cc2)c2c1C1CC3CC(C1)CC2C3 [Example 104, N(7)-(3-Pyridylmethyl)-5-(4-chlorophenyl)-5,6-diazatetracyclo[7.3.1.1^3,11.0^4,8]tetradeca-4(8),6-diene-7-carboxamide] | 20.2 | 180 | 
2 | O=C(NCc1ccncc1)c1nn(-c2ccc(Cl)cc2)c2c1C1CC3CC(C1)CC2C3 [Example 105, N(7)-(4-Pyridylmethyl)-5-(4-chlorophenyl)-5,6-diazatetracyclo[7.3.1.1^3,11.0^4,8]tetradeca-4(8),6-diene-7-carboxamide] | 22.4 | 167 to 168 | 
3 | O=C(NCc1ccc(F)cc1F)c1nn(-c2ccc(Cl)cc2)c2c1C1CC3CC(C1)CC2C3 [Example 114, N(7)-(2,4-Difluorobenzyl)-5-(4-chlorophenyl)-5,6-diazatetracyclo[7.3.1.1^3,11.0^4,8]tetradeca-4(8),6-diene-7-carboxamide] |  | 185 | 31.7
4 | C[C@@H](NC(=O)c1nn(-c2ccc(F)cc2F)c2c1C1CC3CC(C1)CC2C3)c1ccccc1 [Example 147, N(7)-(R-1-phenylethyl)-5-(2,4-difluorophenyl)-5,6-diazatetracyclo[7.3.1.1^3,11.0^4,8]tetradeca-4(8),6-diene-7-carboxamide] |  | 123 to 128 | 37.1
5 | CC(C)(NC(=O)c1nn(-c2ccc(F)cc2F)c2c1C1CC3CC(C1)CC2C3)c1ccccc1 [Example 148, N(7)-(1-Methyl-1-phenylethyl)-5-(2,4-difluorophenyl)-5,6-diazatetracyclo[7.3.1.1^3,11.0^4,8]tetradeca-4(8),6-diene-7-carboxamide] |  | 150 to 152 | 79.2
6 | CC[C@H](NC(=O)c1nn(-c2ccc(F)cc2F)c2c1C1CC3CC(C1)CC2C3)c1ccccc1 [Example 152, N(7)-[(S)-1-Phenylpropyl]-5-(2,4-difluorophenyl)-5,6-diazatetracyclo[7.3.1.1^3,11.0^4,8]tetradeca-4(8),6-diene-7-carboxamide] |  | 127 to 129 | 60.3
7 | CC(C)(NC(=O)c1nn(-c2ccc(F)cc2F)c2c1C1CC3CC(C1)CC2C3)c1ccccc1Cl [Example 153, N7-[1-(2-Chlorophenyl)-1-methylethyl]-5-(2,4-difluorophenyl)-5,6-diazatetracyclo[7.3.1.1^3,11.0^4,8]tetradeca-4(8),6-diene-7-carboxamide] | 99.5 | 145 to 147 | 
8 | O=C(NC12CC3CC(CC(O)(C3)C1)C2)c1nn(-c2ccc(F)cc2F)c2c1C1CC3CC(C1)CC2C3 [Example 156, N7-(3-Hydroxyadamantan-1-yl)-5-(2,4-difluorophenyl)-5,6-diazatetracyclo[7.3.1.1^3,11.0^4,8]tetradeca-4(8),6-diene-7-carboxamide] |  | 240 to 243 | 89.3
9 | O=C(NCC1CCCCC1)c1nn(-c2ccc(F)cc2F)c2c1C1CCC2C1 (stereo not shown) [Example 291, N(3)-(Cyclohexylmethyl)-1-(2,4-difluorophenyl)-4,5,6,7-tetrahydro-1H-4,7-methano-indazole-3-carboxamide] |  | 94 to 97 | 
10 | C[C@@H](NC(=O)c1nn(-c2ccc(F)cc2F)c2c1C1CCC2C1)c1ccccc1 (stereo partly shown) [Example 293, N(3)-(R-1-phenylethyl)-1-(2,4-difluorophenyl)-4,5,6,7-tetrahydro-1H-4,7-methano-indazole-3-carboxamide] |  | 40 to 45 | 
11 | CC12CCC(c3c(C(=O)Nc4ccccc4)nn(-c4ccc(Cl)cc4Cl)c31)C2(C)C (stereo not shown) [Example 401, N(3)-Phenyl-1-(2,4-dichlorophenyl)-7,8,8-trim ethyl-4,5,6,7-tetrahydro-1H-4,7-methano-indazole-3-carboxamide] |  | 112 to 115 | 
